In patent publication US20260364080A1, “PYRAZOLO-PYRIMIDINONE COMPOUNDS FOR USE IN METHODS OF INHIBITING WEE1 A KINASE” (Acrivon Therapeutics, Inc., priority 2023, published 2026):
Read-outs that look alike come from different tables or passages of the source.

Assays:
[1] = target: T1, Wee1A kinase (CDK1 Tyr15 phosphorylation in ACHN renal cell carcinoma cells) (Homo sapiens, UniProt P30291); experiment: High-content imaging of pCdk1 Y15, Wee1A kinase target engagement in ACHN cells; type: cell-based
T1 construct: pCDK1 Tyr15 immunofluorescence read-out
Outline: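 ACHN cells exposed to compound for 4 h over 7–5,000 nM or 0.3–200 nM, then fixed and immunostained for pCDK1 Y15 with DAPI nuclear counterstain. The percentage of pCdk1 Y15 nucleus-positive cells relative to DMSO control was imaged per well; EC50 from dose-response curves.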

[2] = target: T2, recombinant human Wee1A kinase (Homo sapiens, UniProt P30291); experiment: Wee1A kinase binding assay (LanthaScreen Eu time-resolved FRET)
T2 construct: full length Wee1 kinase was expressed by baculovirus in insect cells; purchased Invitrogen PV3817; host or cells: insect cells (baculovirus)
Outline: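 Full-length, baculovirus-expressed GST-tagged Wee1A (5 nM) was mixed with 2 nM Eu-anti-GST antibody, 30 nM kinase tracer 178 and compound (1% DMSO). Buffer was 50 mM HEPES pH 7.5, 10 mM MgCl2, 1 mM EGTA, 0.01% Brij-35, incubated 60 min at room temperature. TR-FRET 665/615 nm emission ratios from duplicates were curve-fitted.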

[3] = target: T3, Myt1 kinase (recombinant PMYT-1) (Homo sapiens, UniProt Q99640); experiment: Myt1 kinase binding assay (LanthaScreen Eu Kinase Binding Assay)
T3 construct: full length PMYT-1 was expressed by baculovirus in insect cells; purchased Invitrogen A30984; host or cells: insect cells (baculovirus)
T3 sequence (Q99640 1-499): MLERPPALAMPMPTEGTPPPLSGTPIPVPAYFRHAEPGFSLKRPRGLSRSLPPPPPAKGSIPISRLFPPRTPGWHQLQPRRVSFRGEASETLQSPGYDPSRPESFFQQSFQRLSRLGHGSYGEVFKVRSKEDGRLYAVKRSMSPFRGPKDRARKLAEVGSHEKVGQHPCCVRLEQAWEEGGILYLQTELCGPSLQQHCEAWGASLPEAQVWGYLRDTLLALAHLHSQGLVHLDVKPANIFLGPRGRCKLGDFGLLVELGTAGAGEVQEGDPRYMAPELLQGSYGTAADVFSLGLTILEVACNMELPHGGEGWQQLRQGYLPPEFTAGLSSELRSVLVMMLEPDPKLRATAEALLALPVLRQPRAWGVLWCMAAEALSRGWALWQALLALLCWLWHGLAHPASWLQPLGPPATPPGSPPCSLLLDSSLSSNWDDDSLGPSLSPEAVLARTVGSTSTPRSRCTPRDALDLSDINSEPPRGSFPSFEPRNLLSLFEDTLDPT
Outline: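 The binding affinity of compounds for Myt1 kinase was measured with a LanthaScreen Europium (Eu) Kinase Binding Assay, a time-resolved FRET format in which test compounds compete against a labeled kinase tracer, and the results were expressed as IC50 values describing compound binding to Myt1.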

[4] = 4 h treatment, nuclear positivity for pCdk1 Y15 vs DMSO control, read-out: CDK1 Tyr15 Phosphorylation EC50
[5] = 30 nM tracer 178, 5 nM Wee1A kinase, 2 nM Eu-labeled antibody, 60 minutes at room temperature, read-out: Wee1A kinase Binding IC50
[6] = 3 nM tracer 178, 2.5 nM PMYT-1, 1 nM Eu-labeled antibody, read-out: Myt1 kinase Binding IC50
[7] = read-out: CDK1 Tyr15 Phosphorylation EC50, 4 h treatment, nuclear positivity for pCdk1 Y15 vs DMSO control
[8] = Myt1 kinase Binding IC50, 3 nM tracer 178, 2.5 nM PMYT-1, 1 nM Eu-labeled antibody

T1 sequence (P30291 whole entry): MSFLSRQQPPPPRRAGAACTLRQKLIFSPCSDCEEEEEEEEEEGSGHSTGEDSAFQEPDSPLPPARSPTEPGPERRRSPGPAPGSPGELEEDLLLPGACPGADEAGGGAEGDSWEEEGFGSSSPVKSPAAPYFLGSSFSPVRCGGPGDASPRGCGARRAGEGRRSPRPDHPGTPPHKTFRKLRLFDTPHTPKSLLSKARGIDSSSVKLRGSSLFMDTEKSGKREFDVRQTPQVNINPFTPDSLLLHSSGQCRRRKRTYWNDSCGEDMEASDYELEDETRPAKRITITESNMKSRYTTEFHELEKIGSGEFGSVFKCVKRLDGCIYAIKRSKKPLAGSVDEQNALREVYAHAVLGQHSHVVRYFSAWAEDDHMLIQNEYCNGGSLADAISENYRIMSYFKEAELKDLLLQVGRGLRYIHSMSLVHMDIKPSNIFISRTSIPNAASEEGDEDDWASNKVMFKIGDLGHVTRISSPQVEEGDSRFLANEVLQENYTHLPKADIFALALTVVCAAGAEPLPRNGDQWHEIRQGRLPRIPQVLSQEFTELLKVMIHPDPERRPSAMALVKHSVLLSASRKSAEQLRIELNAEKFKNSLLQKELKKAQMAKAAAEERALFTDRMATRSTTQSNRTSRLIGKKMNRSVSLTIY
T2 sequence (P30291 whole entry): as above

| SMILES | EC50 [1, 4] [nM] | IC50 [2, 5] [nM] | IC50 [3, 6] [nM] | EC50 [1, 7] [nM] | IC50 [2] [nM] | IC50 [3, 8] [nM] |
| --- | --- | --- | --- | --- | --- | --- |
| CCn1c(=O)c2cnc(Nc3cccc(-c4cnn(C)c4)c3)nc2n1-c1cccc(OC2CCNCC2)n1 [Compound 340, 2-ethyl-6-[m-(1-methyl-4-pyrazolyl)phenylamino]-1-[6-(4-piperidyloxy)-2-pyridyl]-1,2-dihydro-3H-1,2,5,7-tetraazainden-3-one] | > 1000 | < 10 | 100 to 500 |  |  |  |
| C=CCn1c(=O)c2cnc(Nc3ccc(F)cc3)nc2n1-c1cccc(OC2CCCN(C)CC2)n1 (single isomer, unassigned) [Compound 372] | < 100 | < 10 | 20 to 100 |  |  |  |
| C=CCn1c(=O)c2cnc(Nc3ccc(F)cc3)nc2n1-c1cccc(OC2CCCN(C)CC2)n1 (single isomer, unassigned) [Compound 351] | < 100 | < 10 | 20 to 100 |  |  |  |
| CCn1c(=O)c2cnc(Nc3cccc(-c4cncnc4)c3)nc2n1-c1cccc(OC2CCN(C)CC2)n1 [Compound 367, 2-ethyl-1-[6-(1-methyl-4-piperidyloxy)-2-pyridyl]-6-[m-(5-pyrimidinyl)phenylamino]-1,2-dihydro-3H-1,2,5,7-tetraazainden-3-one] | < 100 | < 10 | 100 to 500 |  |  |  |
| CCn1c(=O)c2cnc(Nc3cccc(-c4ccccc4)c3)nc2n1-c1cccc(OC2CCN(C)CC2)n1 [Compound 339, 6-(3-biphenylylamino)-2-ethyl-1-[6-(1-methyl-4-piperidyloxy)-2-pyridyl]-1,2-dihydro-3H-1,2,5,7-tetraazainden-3-one] | > 1000 | < 10 | 20 to 100 |  |  |  |
| C=CCn1c(=O)c2cnc(Nc3ccnc(OC)c3)nc2n1-c1cccc(OC2CCN(C)CC2)n1 [Compound 263, 2-allyl-6-(2-methoxy-4-pyridylamino)-1-[6-(1-methyl-4-piperidyloxy)-2-pyridyl]-1,2-dihydro-3H-1,2,5,7-tetraazainden-3-one] | < 100 | < 10 | < 20 |  |  |  |
| C=CCn1c(=O)c2cnc(Nc3ccc(Cl)cc3)nc2n1-c1cccc(N(C)C2CCNCC2)n1 [Compound 156, 6-[(4-chlorophenyl)amino]-1-{6-[methyl(piperidin-4-yl)amino]pyridin-2-yl}-2-(prop-2-en-1-yl)-1H,2H,3H-pyrazolo[3,4-d]pyrimidin-3-one] |  |  |  | 500 to 1000 | < 10 | 100 to 500 |
| CCn1c(=O)c2cnc(Nc3ccc(Br)cc3)nc2n1-c1cccc(OC2CCN(C)CC2)n1 [Compound 268, 6-(p-bromophenylamino)-2-ethyl-1-[6-(1-methyl-4-piperidyloxy)-2-pyridyl]-1,2-dihydro-3H-1,2,5,7-tetraazainden-3-one] | 100 to 500 | < 10 | < 20 |  |  |  |
| CCn1c(=S)c2cnc(Nc3ccc4c(cnn4C)c3)nc2n1-c1cccc(OC2CCN(C)CC2)n1 [Compound 362, 2-ethyl-6-[(1-methyl-1H-indazol-5-yl)amino]-1-{6-[(1-methylpiperidin-4-yl)oxy]pyridin-2-yl}-1H,2H,3H-pyrazolo[3,4-d]pyrimidine-3-thione] | 100 to 500 | < 10 | 100 to 500 |  |  |  |
| C=CCn1c(=O)c2cnc(Nc3ccc4c(cnn4C)c3)nc2n1-c1cccc(N[C@H]2CCNC2)n1 [Compound 107, 1-{6-[(S)-3-pyrrolidinylamino]-2-pyridyl}-2-allyl-6-(1-methyl-1H-indazol-5-ylamino)-1,2-dihydro-3H-1,2,5,7-tetraazainden-3-one] | > 1000 | < 10 | 20 to 100 |  |  |  |
| C=CCn1c(=O)c2cnc(Nc3ccc(C)nc3)nc2n1-c1cccc(OC2CCNCC2)n1 [Compound 237, 2-allyl-6-((6-methylpyridin-3-yl)amino)-1-(6-(piperidin-4-yloxy)pyridin-2-yl)-1,2-dihydro-3H-pyrazolo[3,4-d]pyrimidin-3-one] | 100 to 500 | < 10 | 20 to 100 |  |  |  |
| C=CCn1c(=O)c2cnc(Nc3ccc(OCCF)cc3)nc2n1-c1ccnc(OC2CCNCC2)n1 [Compound 391, 2-allyl-6-((4-(2-fluoroethoxy)phenyl)amino)-1-(2-(piperidin-4-yloxy)pyrimidin-4-yl)-1,2-dihydro-3H-pyrazolo[3,4-d]pyrimidin-3-one] | 100 to 500 | < 10 | 20 to 100 |  |  |  |
| CN1CCC(Oc2cccc(-n3c4nc(Nc5ccc(Cl)cc5)ncc4c(=O)n3C)n2)CC1 [Compound 150, 6-(p-chlorophenylamino)-2-methyl-1-[6-(1-methyl-4-piperidyloxy)-2-pyridyl]-1,2-dihydro-3H-1,2,5,7-tetraazainden-3-one] | 100 to 500 | < 10 | 20 to 100 |  |  |  |

Second part, the compound after the results:

| EC50 [1, 4] [nM] | IC50 [2, 5] [nM] | IC50 [3, 6] [nM] | EC50 [1, 7] [nM] | IC50 [2] [nM] | IC50 [3, 8] [nM] | SMILES |
| --- | --- | --- | --- | --- | --- | --- |
| 100 to 500 | < 10 | < 20 |  |  |  | C=CCn1c(=O)c2cnc(Nc3ccc4nn(C)cc4c3)nc2n1-c1cccc(OC2CCNCC2)n1 [Compound 274, 2-allyl-6-((2-methyl-2H-indazol-5-yl)amino)-1-(6-(piperidin-4-yloxy)pyridin-2-yl)-1,2-dihydro-3H-pyrazolo[3,4-d]pyrimidin-3-one] |
| < 100 | < 10 | < 20 |  |  |  | C=CCn1c(=O)c2cnc(Nc3ccc4c(c3)nnn4C(C)C)nc2n1-c1cccc(OC2CCNCC2)n1 [Compound 408, 2-allyl-6-((1-isopropyl-1H-benzo[d][1,2,3]triazol-5-yl)amino)-1-(6-(piperidin-4-yloxy)pyridin-2-yl)-1,2-dihydro-3H-pyrazolo[3,4-d]pyrimidin-3-one] |
| > 1000 | < 10 | 100 to 500 |  |  |  | CCn1c(=O)c2cnc(Nc3ccc4c(cnn4C)c3)nc2n1-c1cccc(NC2CCNCC2)n1 [Compound 285, 2-ethyl-6-[(1-methyl-1H-indazol-5-yl)amino]-1-{6-[(piperidin-4-yl)amino]pyridin-2-yl}-1H,2H,3H-pyrazolo[3,4-d]pyrimidin-3-one] |
| 500 to 1000 | < 10 | 100 to 500 |  |  |  | C=CCn1c(=O)c2cnc(Nc3ccc4c(cnn4C)c3)nc2n1-c1cccc(NC2CCNCC2)n1 [Compound 122, 6-[(1-methyl-1H-indazol-5-yl)amino]-1-{6-[(piperidin-4-yl)amino]pyridin-2-yl}-2-(prop-2-en-1-yl)-1H,2H,3H-pyrazolo[3,4-d]pyrimidin-3-one] |
| < 100 | < 10 | 20 to 100 |  |  |  | C=CCn1c(=O)c2cnc(Nc3cccc(-n4ccnc4)c3)nc2n1-c1cccc(OC2CCN(C)CC2)n1 [Compound 365, 2-allyl-6-[m-(1-imidazolyl)phenylamino]-1-[6-(1-methyl-4-piperidyloxy)-2-pyridyl]-1,2-dihydro-3H-1,2,5,7-tetraazainden-3-one] |
| 100 to 500 | < 10 | 100 to 500 |  |  |  | C=CCn1c(=O)c2cnc(Nc3ccc(Cl)cc3)nc2n1-c1cccc(O[C@@H]2CCCNC2)n1 [Compound 192, 1-{6-[(R)-3-piperidyloxy]-2-pyridyl}-2-allyl-6-(p-chlorophenylamino)-1,2-dihydro-3H-1,2,5,7-tetraazainden-3-one] |
| 100 to 500 | < 10 | > 500 |  |  |  | C=CCn1c(=O)c2cnc(Nc3ccc(F)cc3)nc2n1-c1cccc(OC2CCCNCC2)n1 (single isomer, unassigned) [Compound 344] |
|  |  |  | 500 to 1000 | < 10 | > 500 | C=CCn1c(=O)c2cnc(Nc3cnn(C)c3)nc2n1-c1cccc(O[C@@H]2C[C@H]3CC[C@@H](C2)N3C)n1 [Compound 189, 6-[(1-methyl-1H-pyrazol-4-yl)amino]-1-(6-{[(cis)-8-methyl-8-azabicyclo[3.2.1]octan-3-yl]oxy}pyridin-2-yl)-2-(prop-2-en-1-yl)-1H,2H,3H-pyrazolo[3,4-d]pyrimidin-3-one] |
| 100 to 500 | < 10 | 20 to 100 |  |  |  | C=CCn1c(=O)c2cnc(Nc3cc(-c4ccccc4)ns3)nc2n1-c1cccc(NC2CCN(C)CC2)n1 [Compound 158, 2-allyl-1-[6-(1-methyl-4-piperidylamino)-2-pyridyl]-6-(3-phenyl-5-isothiazolylamino)-1,2-dihydro-3H-1,2,5,7-tetraazainden-3-one] |
